Assay [1] deals with Male Institute of Cancer Research (ICR) mice. The assay can be described thus: Locomotor activity, antagonism of nicotine effect. Type of assay: in vivo. Conditions: for AD50 Locomotion: pretreatment 15 min before nicotine […] s.c. An excerpt:
(§1) Animals: Male Institute of Cancer Research (ICR) mice (weighing 20-25 g) obtained from Harlan (Indianapolis, Ind.) were used throughout the study. Animals were housed in an Association for Assessment and Accreditation of Laboratory Animal Care-approved facility, were placed in groups of six, and had free access to food and water. Studies were approved by the Institutional Animal Care and Use Committee of Virginia Commonwealth University.
Locomotor Activity: Mice were placed into individual Omnitech photocell activity cages (28×16.5 cm; Omnitech Electronics, Columbus, Ohio) 5 min after subcutaneous administration of either 0.9% saline or nicotine (1.5 mg/kg). Interruptions of the photocell beams (two banks of eight cells each) were then recorded for the next 10 min. Data were expressed as the number of photocell interruptions.

For assay [2], the target named is T1, human DA transporters [(h)DAT] (Homo sapiens, UniProt Q01959).
T1 construct: expressed in transfected cells; host or cells: HEK-293
As to the kind of experiment: Inhibition of [3H]dopamine uptake into HEK293 cells stably expressing hDAT. The following applies: HEK293-hDAT; mean ± standard error of three independent experiments; read-out: monoamine uptake inhibition IC50 [3H]DA. The format is cell-based. An excerpt: (§2) Cell Lines and Culture: Human embryonic kidney (HEK-293) cells stably expressing human DAT, NET or SERT were maintained as previously described in Eshleman, A. J.; Carmolli, M.; Cumbay, M.; Martens, C. R.; Neve, K. A.; Janowsky, A., J. Pharmacol. Exp. Ther. 1999, 289, (2), 877-885. Use was made of several human cell lines that naturally or heterologously express specific, functional, human nAChR subtypes. Cells of the TE671/RD line naturally expresses muscle-type nAChR (a1β1γδ- or α1*-nAChR), and SH-SY5Y neuroblastoma cells naturally expresses autonomic α3β4*-nAChRs (containing α3, β4, probably α5, and sometimes β2 subunits). Different clones of SH-EP1 epithelial cell lines have been engineered to heterologously express either α4β2-nAChR, which are thought to be the most abundant, high affinity nicotine-binding nAChR in mammalian brain, or α4β4-nAChR, another possible brain nAChR subtype (SH-EP1-hα4β2 or α4β4 cells, respectively). These cells were maintained as low passage number (1-26 from our frozen stocks) cultures to ensure stable expression of native or heterologously-expressed nAChR as previously described (see Lukas, R. J.; Fryer, J. D.; Eaton, J. B.; L., G. C., Some methods for studies of nicotinic acetylcholine receptor pharmacology, in Nicotinic receptors and the Nervous System, Levine, E. D., Ed. CRC Press: Boca Raton, 2002; pp 3-27, incorporated herein by reference in its entirety). Cells were passaged once weekly by splitting just-confluent cultures 1/300 (TE671/RD), 1/5 (SH-SY5Y), or 1/20 (transfected SH-EP1) in serum-supplemented medium to maintain log-phase growth.
(§3) See, for example, Damaj, M. I.; Carroll, F. I.; Eaton, J. B.; Navarro, H. A.; Blough, B. E.; Mirza, S.; Lukas, R. J.; Martin, B. R., Mol. Pharmacol. 2004, 66, (3), 675-682 and Eshleman, A. J.; Carmolli, M.; Cumbay, M.; Martens, C. R.; Neve, K. A.; Janowsky, A., J. Pharmacol. Exp. Ther. 1999, 289, (2), 877-885, both incorporated by reference herein in their entireties.

Assay [3] has as its target T2, muscle-type nAChR (α1β1γδ- or α1*-nAChR) (Homo sapiens, UniProt P02708+P07510+P11230+Q07001).
T2 construct: Cells of the TE671/RD line naturally expresses muscle-type nAChR; endogenous in cells; host or cells: TE671/RD cells
As to the kind of experiment: 86Rb+ efflux nAChR functional assay, TE671/RD cells. The format is cell-based. Conditions: parentheses = S.E.M. as multiplication/division factor.
From the text: as §2
After cells had adhered (generally overnight, but no sooner than 4 h later), the medium was removed and replaced with 250 μL per well of complete medium supplemented with ˜350,000 cpm of ^86Rb^+ (PerkinElmer Life and Analytical Sciences, Boston, Mass.) and counted at 40% efficiency using Cerenkov counting (TriCarb 1900 liquid scintillation analyzer[…]; PerkinElmer Life Sciences).
After at least 4 h and typically overnight, ^86Rb^+ efflux was measured using the “flip-plate” technique. See Lukas, R. J.; Fryer, J. D.; Eaton, J. B.; L., G. C., Some methods for studies of nicotinic acetylcholine receptor pharmacology, in Nicotinic receptors and the Nervous System, Levine, E. D., Ed. CRC Press: Boca Raton, 2002; pp 3-27, incorporated herein by reference in its entirety). Briefly, after aspiration of the bulk of ^86Rb^+ loading medium from each well of the “cell plate,” each well containing cells was rinsed 3× with 2 mL of fresh ^86Rb^+ efflux buffer (130 mM NaCl, 5.4 mM KCl, 2 mM CaCl2, 5 mM glucose, 50 mM HEPES, pH 7.4) to remove extracellular ^86Rb^+. Following removal of residual rinse buffer by aspiration, the flip-plate technique was used again to simultaneously introduce 1.5 mL of fresh efflux buffer containing drugs of choice at indicated final concentrations from a 24-well “efflux/drug plate” into the wells of the cell plate. After a 5 min incubation, the solution was “flipped” back into the efflux/drug plate, and any remaining buffer in the cell plate was removed by aspiration. Cells remaining in the cell plate were lysed and suspended by addition of 1.5 mL of 0.1 M NaOH, 0.1% sodium dodecyl sulfate to each well.
Similarly, the sum of ^86Rb^+ in cell plates and efflux/drug plates also determined the efficiency of ^86Rb^+ loading (the percentage of applied ^86Rb^+ actually loaded into cells).
Specific efflux was then taken as the difference in control samples between total and non-specific ^86Rb^+ efflux. Any intrinsic agonist activity of test drugs was ascertained using samples containing test drug only at different concentrations and was normalized, after subtraction of non-specific efflux, to specific efflux in test drug-free, control samples.

In assay [4] the target is T3, 5HT transporters [(h)SERT] (Homo sapiens, UniProt P31645).
T3 construct: expressed in transfected cells; host or cells: HEK-293
As to the kind of experiment: Inhibition of [3H]serotonin uptake into HEK293 cells stably expressing hSERT. Type of assay: cell-based. The following applies: read-out: monoamine uptake inhibition IC50 [3H]5HT.
From the text: as §2, §3

Assay [5] relates to Male Institute of Cancer Research (ICR) mice. The assay can be described thus: Tail-flick test, blockade of nicotine-induced antinociception. Conditions: for ED50: Mus musculus, 5 min, read-out: AD50 Tail-flick; for activity in the tail-flick assay relative to (2S,3S)-4a: higher activity than (2S,3S)-4a. Type of assay: in vivo.
From the text: as §1
Tail-Flick Test: Antinociception for pain mediated at the spinal level was assessed by the tail-flick method of D'Amour, F. E.; Smith, D. L., J. Pharmacol. Exp. Ther. 1941, 72, 74-79, incorporated herein by reference in its entirety. In brief, mice were lightly restrained while a radiant heat source was shone onto the upper portion of the tail. To minimize tissue damage, a maximum latency of 10 s was imposed. Latency to remove the tail from the heat source was recorded for each animal. […] Antinociceptive response was calculated as the percentage of maximum possible effect (% MPE), where % MPE=[(test control)/(10 control)]×100.
(In hot-plate and tail-flick tests a longer latency is read as antinociception.)

The mark [6] stands for this setting: EC80-EC90 carbamylcholine, read-out: nAChR inhibition IC50 α1*β1.
The mark [7] stands for this setting: HEK293-hSERT, mean ± standard error of three independent experiments.
Where [8] appears, read: mice, pretreatment 15 min before nicotine 2.5 mg/kg s.c., tested 5 min after nicotine.
Setting [9] is: nAChR inhibition IC50 α1*β1, EC80-EC90 carbamylcholine.

Experimental findings from US8906908B2, “Hydroxybupropion analogues for treating drug dependence” (priority 2010, dated 2014) are described below.

SMILES strings stand for the structures. Where two headings read alike, the source gives them in different places.

The term IC50 denotes the concentration at which inhibition is half-maximal.

T3 sequence (P31645 whole entry): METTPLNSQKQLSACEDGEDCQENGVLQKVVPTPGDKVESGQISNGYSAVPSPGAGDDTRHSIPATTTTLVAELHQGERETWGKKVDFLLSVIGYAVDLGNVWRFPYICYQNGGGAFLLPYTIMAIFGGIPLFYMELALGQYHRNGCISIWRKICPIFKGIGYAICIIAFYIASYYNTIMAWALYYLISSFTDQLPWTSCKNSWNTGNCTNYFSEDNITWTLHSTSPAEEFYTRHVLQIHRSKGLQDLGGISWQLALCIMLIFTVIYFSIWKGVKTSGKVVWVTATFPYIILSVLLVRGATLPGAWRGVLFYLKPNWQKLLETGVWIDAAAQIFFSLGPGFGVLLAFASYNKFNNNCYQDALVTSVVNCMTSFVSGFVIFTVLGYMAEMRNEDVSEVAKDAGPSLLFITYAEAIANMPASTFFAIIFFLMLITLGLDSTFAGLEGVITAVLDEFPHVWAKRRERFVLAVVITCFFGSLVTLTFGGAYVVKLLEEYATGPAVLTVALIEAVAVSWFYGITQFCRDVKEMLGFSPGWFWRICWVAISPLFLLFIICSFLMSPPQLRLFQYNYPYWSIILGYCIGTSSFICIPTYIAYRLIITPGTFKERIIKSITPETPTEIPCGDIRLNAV
T2 sequence (P02708 21-457): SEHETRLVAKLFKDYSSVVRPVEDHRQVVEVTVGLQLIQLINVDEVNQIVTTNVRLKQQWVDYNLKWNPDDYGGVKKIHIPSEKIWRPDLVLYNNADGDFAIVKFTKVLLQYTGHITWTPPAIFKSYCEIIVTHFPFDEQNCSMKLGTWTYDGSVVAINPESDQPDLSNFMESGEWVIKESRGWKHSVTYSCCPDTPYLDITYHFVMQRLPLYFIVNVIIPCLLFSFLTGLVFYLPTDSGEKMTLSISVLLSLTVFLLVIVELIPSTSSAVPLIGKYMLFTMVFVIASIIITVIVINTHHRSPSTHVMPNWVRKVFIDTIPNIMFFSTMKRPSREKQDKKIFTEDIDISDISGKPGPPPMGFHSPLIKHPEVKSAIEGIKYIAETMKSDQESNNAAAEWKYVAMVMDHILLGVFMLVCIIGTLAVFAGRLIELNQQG
T2 sequence (P11230 24-501): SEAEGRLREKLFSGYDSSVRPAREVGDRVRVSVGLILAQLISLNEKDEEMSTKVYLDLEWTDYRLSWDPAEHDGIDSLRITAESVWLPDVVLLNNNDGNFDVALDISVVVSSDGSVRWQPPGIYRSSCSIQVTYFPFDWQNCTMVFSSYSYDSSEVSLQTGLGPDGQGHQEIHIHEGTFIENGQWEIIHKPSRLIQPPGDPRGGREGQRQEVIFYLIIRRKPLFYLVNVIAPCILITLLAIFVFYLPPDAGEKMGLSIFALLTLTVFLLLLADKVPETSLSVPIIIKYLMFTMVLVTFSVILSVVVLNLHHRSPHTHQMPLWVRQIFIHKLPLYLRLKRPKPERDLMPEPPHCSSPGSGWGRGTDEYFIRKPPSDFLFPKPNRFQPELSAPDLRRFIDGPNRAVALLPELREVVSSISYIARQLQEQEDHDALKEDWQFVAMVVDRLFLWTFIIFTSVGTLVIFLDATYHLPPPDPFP
T2 sequence (P07510 23-517): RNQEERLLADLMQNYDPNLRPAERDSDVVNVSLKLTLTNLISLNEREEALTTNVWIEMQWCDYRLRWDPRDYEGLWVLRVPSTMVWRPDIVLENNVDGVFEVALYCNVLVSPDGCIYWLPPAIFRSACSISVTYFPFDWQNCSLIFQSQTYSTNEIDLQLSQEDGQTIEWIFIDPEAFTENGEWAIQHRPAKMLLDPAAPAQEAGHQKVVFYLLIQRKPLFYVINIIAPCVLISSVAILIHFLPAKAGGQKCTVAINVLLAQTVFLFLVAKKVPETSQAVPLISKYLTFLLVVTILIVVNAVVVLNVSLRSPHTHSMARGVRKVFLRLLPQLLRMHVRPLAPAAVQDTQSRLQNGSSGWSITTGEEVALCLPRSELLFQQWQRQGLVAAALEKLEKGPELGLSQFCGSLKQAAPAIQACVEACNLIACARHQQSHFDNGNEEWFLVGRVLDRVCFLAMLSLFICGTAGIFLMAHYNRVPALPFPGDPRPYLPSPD
T2 sequence (Q07001 22-517): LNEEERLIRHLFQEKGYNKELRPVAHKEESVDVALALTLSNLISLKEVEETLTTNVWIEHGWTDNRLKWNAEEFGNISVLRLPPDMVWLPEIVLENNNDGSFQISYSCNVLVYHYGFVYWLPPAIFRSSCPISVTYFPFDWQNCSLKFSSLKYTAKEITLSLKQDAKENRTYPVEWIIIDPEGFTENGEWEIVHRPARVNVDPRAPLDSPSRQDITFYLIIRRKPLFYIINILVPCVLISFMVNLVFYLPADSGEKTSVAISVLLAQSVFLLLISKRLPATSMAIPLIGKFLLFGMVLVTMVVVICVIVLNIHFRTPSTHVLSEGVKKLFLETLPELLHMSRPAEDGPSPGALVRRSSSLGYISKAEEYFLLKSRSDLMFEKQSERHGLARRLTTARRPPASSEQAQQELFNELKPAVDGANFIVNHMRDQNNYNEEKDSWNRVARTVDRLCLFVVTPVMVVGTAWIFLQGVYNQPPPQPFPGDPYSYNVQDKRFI
T1 sequence (Q01959 whole entry): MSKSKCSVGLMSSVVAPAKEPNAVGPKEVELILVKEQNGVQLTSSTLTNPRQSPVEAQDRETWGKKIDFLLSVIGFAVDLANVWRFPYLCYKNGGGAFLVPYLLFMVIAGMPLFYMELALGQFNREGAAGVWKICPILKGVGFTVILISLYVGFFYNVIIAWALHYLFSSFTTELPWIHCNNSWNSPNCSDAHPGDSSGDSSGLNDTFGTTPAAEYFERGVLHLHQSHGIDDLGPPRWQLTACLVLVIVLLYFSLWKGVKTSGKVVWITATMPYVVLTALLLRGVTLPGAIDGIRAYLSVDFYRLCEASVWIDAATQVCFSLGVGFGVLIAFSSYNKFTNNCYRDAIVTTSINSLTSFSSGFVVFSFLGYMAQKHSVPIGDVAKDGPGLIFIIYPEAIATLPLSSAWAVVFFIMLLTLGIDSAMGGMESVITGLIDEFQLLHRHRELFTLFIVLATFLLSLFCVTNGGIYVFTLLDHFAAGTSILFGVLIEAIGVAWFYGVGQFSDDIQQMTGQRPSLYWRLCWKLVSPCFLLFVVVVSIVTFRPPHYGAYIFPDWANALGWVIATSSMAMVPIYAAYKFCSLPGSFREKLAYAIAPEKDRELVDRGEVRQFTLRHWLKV

As to `C[C@@H]1NC(C)(C)CO[C@@]1(O)c1ccc(F)c(F)c1` [Compound 4m, (2S,3S)-2-(3,4-Difluorophenyl)-3,5,5-trimethylmorpholin-2-ol], in assay [1], the “AD50 Locomotion” value is recorded as “IA (IA: AD50 > 15 mg/kg)”. For the same compound, the IC50 was 2.14 ± 0.18 µM in assay [2], 36 µM in assay [3] (setting [6]) and above 10 µM in assay [4] (setting [7]). Further, in assay [5] (setting [8]), the ED50 is 0.006 mg/kg.
`C[C@@H]1NC(C)(C)CO[C@@]1(O)c1cc(F)cc(F)c1` [Compound 4o, (2S,3S)-2-(3,5-Difluorophenyl)-3,5,5-trimethylmorpholin-2-ol]: the “AD50 Locomotion” value in assay [1] was “IA (IA: AD50 > 15 mg/kg)”. The IC50 in assay [2] was 1.02 ± 0.19 µM; in assay [3] (setting [6]) it was 23 µM; in assay [4] (setting [7]), above 10 µM. Moreover, the ED50 in assay [5] (setting [8]) amounted to 0.0056 mg/kg. For the same compound, in assay [5] (setting [8]), the “AD50 Tail-flick” value is around 0.006 mg/kg.
With `C[C@@H]1NC(C)(C)CO[C@@]1(O)c1cccc2ccccc12` [Compound 4q, (2S,3S)-2-(Naphthalen-1-yl)-3,5,5-trimethylmorpholin-2-ol], the “AD50 Locomotion” value in assay [1] is given as “IA (IA: AD50 > 15 mg/kg)”. The IC50 in assay [2] stood at 10 µM; in assay [3] (setting [6]), 6.6 µM; in assay [4], 1.56 ± 0.215 µM. Also, in assay [5] (setting [8]), the ED50 came out at 0.034 mg/kg. Also, the “activity in the tail-flick assay relative to (2S,3S)-4a” value in assay [5] is around 5 fold.
As to `C[C@@H]1NC(C)(C)CO[C@@]1(O)c1ccc2ccccc2c1` [Compound 4r, (2S,3S)-2-(Naphthalen-2-yl)-3,5,5-trimethylmorpholin-2-ol], the “AD50 Locomotion” value in assay [1] was “IA (IA: AD50 > 15 mg/kg)”. Also, the figures for the IC50 in assay [2], in assay [3] (setting [6]) and in assay [4] were 0.453 µM, 11 µM and 0.334 ± 0.042 µM, respectively. The ED50 in assay [5] (setting [8]) worked out at 0.04 mg/kg. Moreover, the “activity in the tail-flick assay relative to (2S,3S)-4a” value in assay [5] is around 5 fold.
As for `CC[C@@H]1NC(C)(C)CO[C@@]1(O)c1cccc(Cl)c1` [Compound 4s, (2S,3S)-2-(3-Chlorophenyl)-3-ethyl-5,5-dimethylmorpholin-2-ol], the ED50 was found to be 10.3 mg/kg in assay [1] (Mus musculus, pretreatment 15 min before nicotine 1.5 mg/kg s.c., read-out: AD50 Locomotion) and 0.004 mg/kg in assay [5] (setting [8]). The results for the IC50 in assay [2], in assay [3] (setting [6]) and in assay [4] were 0.204 ± 0.023 µM, 14 µM and 2.5 ± 0.54 µM, respectively.
Take `C[C@@H]1N(C)C(C)(C)CO[C@@]1(O)c1cccc(Cl)c1` [Compound 4u, (2S,3S)-2-(3-Chlorophenyl)-3,4,5,5-tetramethylmorpholin-2-ol]: in assay [1], the “AD50 Locomotion” value is “IA (IA: AD50 > 15 mg/kg)”. For the same compound, the IC50 was 3.4 ± 0.6 µM in assay [2], 57 µM in assay [3] (setting [6]), above 33 µM in assay [3] (setting [9]) and above 10 µM in assay [4] (setting [7]). In assay [5] (setting [8]), the ED50 was 0.016 mg/kg.
For the compound `C[C@@H]1N(C)C(C)(C)CO[C@@]1(O)c1ccc(Cl)cc1` [Compound 4v, (2S,3S)-2-(4-Chlorophenyl)-3,4,5,5-tetramethylmorpholin-2-ol], in assay [1], the “AD50 Locomotion” value is on record as “IA (IA: AD50 > 15 mg/kg)”. Besides, the IC50 in assay [2] is 2.87 ± 0.82 µM; in assay [3] (setting [6]), 43 µM; in assay [3] (setting [9]) it was above 33 µM; in assay [4] (setting [7]), 6.48 ± 1.28 µM. Moreover, the ED50 in assay [5] (setting [8]) was 0.32 mg/kg.
